{"source": "patent US20250262336A1", "about": "“[177LU] LUTETIUM-PSMA I&T COMPOSITION AND DOSIMETRY, KIT, METHOD OF MAKING, AND METHOD OF USING THEREOF” (Curium US LLC, priority 2023, published 2025)", "assay": "Cycle 3 biodistribution and dosimetry (SPECT/CT, single or multiple time points)", "type": "in vivo, human", "procedure": "(§1) To evaluate potential changes in the tracer's kinetics and uptake after multiple treatment cycles, 16 of the 27 patients included in the dosimetry sub study, were imaged at both cycle 1 and cycle 3. Among these, at cycle 3, three patients were imaged at all 4 timepoints and the other 13 were imaged at one or two timepoints only (24 h, 48 h or both 24 h and 48 h) (Table 2). For these 13 patients, the TACs obtained at cycle 1 were used for each source organ and scaled to the normalized activity value(s) measured at Cycle 3. For patients imaged at two timepoints, the TACs were preferably scaled using the average scaling factor between the two timepoints.\n(§2) A subgroup of 16 out of the 27 patients underwent and additional dosimetry assessment at Cycle 3. Among these, three patients had dosimetry performed based on images taken at 4 timepoints, while the remaining patients had dosimetry performed at 1 or 2 imaging timepoints only.\nas §1, with “7 in Appendix 1).” for “2).”\nas §2, with “only, as described in Section 4.4.1.” for “only.”", "key": {"[1]": {"details": "Lacrimal Glands (OLINDA sphere model), N = 16"}}, "data": [{"smiles": "O=C(O)CC[C@H](NC(=O)N[C@@H](CCCCNC(=O)CCCCCCC(=O)NCCCC[C@@H](NC(=O)[C@@H](Cc1ccccc1)NC(=O)[C@@H](Cc1ccc(O)c(I)c1)NC(=O)CC[C@H](C(=O)O)N1CCN(CC(=O)O)CCN(CC(=O)O)CCN(CC(=O)O)CC1)C(=O)O)C(=O)O)C(=O)O", "note": "[^177Lu-PSMA-I&T, (3S,7 S,26R,29R,32R,37R)-29-benzyl-32-(4-hydroxy-3-iodobenzyl)-5,13,20,28,31,34-hexaoxo-37-(4,7,10-tris(carboxymethyl)-1,4,7,10-tetraazacyclododecan-1-yl)-4,6,12,21,27,30,33-heptaazaheptatriacontane-1,3,7,26,37-pentacarboxylic acid; lutetium-177 (III), metal not drawn]", "values": [{"measurement": "Absorbed Dose in Cycle 3, Mean", "setting": "Adrenals, N = 16", "value": 0.02, "unit": "Gy/GBq"}, {"measurement": "Absorbed Dose in Cycle 3, max", "setting": "Adrenals, N = 16", "value": 0.03, "unit": "Gy/GBq"}, {"measurement": "Absorbed Dose in Cycle 3, min", "setting": "Adrenals, N = 16", "value": 0.01, "unit": "Gy/GBq"}, {"measurement": "Absorbed Dose in Cycle 3, Mean", "setting": "Brain, N = 16", "value": 0.01, "unit": "Gy/GBq"}, {"measurement": "Absorbed Dose in Cycle 3, max", "setting": "Brain, N = 16", "value": 0.02, "unit": "Gy/GBq"}, {"measurement": "Absorbed Dose in Cycle 3, min", "setting": "Brain, N = 16", "value": 0.00, "unit": "Gy/GBq"}, {"measurement": "Absorbed Dose in Cycle 3, Mean", "setting": "Esophagus, N = 16", "value": 0.01, "unit": "Gy/GBq"}, {"measurement": "Absorbed Dose in Cycle 3, max", "setting": "Esophagus, N = 16", "value": 0.02, "unit": "Gy/GBq"}, {"measurement": "Absorbed Dose in Cycle 3, min", "setting": "Esophagus, N = 16", "value": 0.00, "unit": "Gy/GBq"}, {"measurement": "Absorbed Dose in Cycle 3, Mean", "setting": "Eyes, N = 16", "value": 0.01, "unit": "Gy/GBq"}, {"measurement": "Absorbed Dose in Cycle 3, max", "setting": "Eyes, N = 16", "value": 0.02, "unit": "Gy/GBq"}, {"measurement": "Absorbed Dose in Cycle 3, min", "setting": "Eyes, N = 16", "value": 0.00, "unit": "Gy/GBq"}, {"measurement": "Absorbed Dose in Cycle 3, Mean", "setting": "Gallbladder wall, N = 16", "value": 0.01, "unit": "Gy/GBq"}, {"measurement": "Absorbed Dose in Cycle 3, max", "setting": "Gallbladder wall, N = 16", "value": 0.02, "unit": "Gy/GBq"}, {"measurement": "Absorbed Dose in Cycle 3, min", "setting": "Gallbladder wall, N = 16", "value": 0.00, "unit": "Gy/GBq"}, {"measurement": "Absorbed Dose in Cycle 3, Mean", "setting": "Heart wall, N = 16", "value": 0.01, "unit": "Gy/GBq"}, {"measurement": "Absorbed Dose in Cycle 3, max", "setting": "Heart wall, N = 16", "value": 0.02, "unit": "Gy/GBq"}, {"measurement": "Absorbed Dose in Cycle 3, min", "setting": "Heart wall, N = 16", "value": 0.00, "unit": "Gy/GBq"}, {"measurement": "Absorbed Dose in Cycle 3, Mean", "setting": "Kidneys, N = 16", "value": 0.49, "unit": "Gy/GBq"}, {"measurement": "Absorbed Dose in Cycle 3, max", "setting": "Kidneys, N = 16", "value": 0.85, "unit": "Gy/GBq"}, {"measurement": "Absorbed Dose in Cycle 3, min", "setting": "Kidneys, N = 16", "value": 0.19, "unit": "Gy/GBq"}, {"measurement": "Absorbed Dose in Cycle 3, Mean", "setting": "[1]", "value": 0.29, "unit": "Gy/GBq"}, {"measurement": "Absorbed Dose in Cycle 3, max", "setting": "[1]", "value": 0.73, "unit": "Gy/GBq"}, {"measurement": "Absorbed Dose in Cycle 3, min", "setting": "[1]", "value": 0.10, "unit": "Gy/GBq"}, {"measurement": "Absorbed Dose in Cycle 3, Mean", "setting": "Left colon, N = 16", "value": 0.41, "unit": "Gy/GBq"}, {"measurement": "Absorbed Dose in Cycle 3, max", "setting": "Left colon, N = 16", "value": 0.94, "unit": "Gy/GBq"}, {"measurement": "Absorbed Dose in Cycle 3, min", "setting": "Left colon, N = 16", "value": 0.07, "unit": "Gy/GBq"}, {"measurement": "Absorbed Dose in Cycle 3, Mean", "setting": "Liver, N = 16", "value": 0.06, "unit": "Gy/GBq"}, {"measurement": "Absorbed Dose in Cycle 3, max", "setting": "Liver, N = 16", "value": 0.15, "unit": "Gy/GBq"}, {"measurement": "Absorbed Dose in Cycle 3, min", "setting": "Liver, N = 16", "value": 0.00, "unit": "Gy/GBq"}, {"measurement": "Absorbed Dose in Cycle 3, Mean", "setting": "Lungs, N = 16", "value": 0.01, "unit": "Gy/GBq"}, {"measurement": "Absorbed Dose in Cycle 3, max", "setting": "Lungs, N = 16", "value": 0.02, "unit": "Gy/GBq"}, {"measurement": "Absorbed Dose in Cycle 3, min", "setting": "Lungs, N = 16", "value": 0.00, "unit": "Gy/GBq"}, {"measurement": "Absorbed Dose in Cycle 3, Mean", "setting": "Osteogenic cells, N = 16", "value": 0.02, "unit": "Gy/GBq"}, {"measurement": "Absorbed Dose in Cycle 3, max", "setting": "Osteogenic cells, N = 16", "value": 0.09, "unit": "Gy/GBq"}, {"measurement": "Absorbed Dose in Cycle 3, min", "setting": "Osteogenic cells, N = 16", "value": 0.00, "unit": "Gy/GBq"}, {"measurement": "Absorbed Dose in Cycle 3, Mean", "setting": "Pancreas, N = 16", "value": 0.01, "unit": "Gy/GBq"}, {"measurement": "Absorbed Dose in Cycle 3, max", "setting": "Pancreas, N = 16", "value": 0.02, "unit": "Gy/GBq"}, {"measurement": "Absorbed Dose in Cycle 3, min", "setting": "Pancreas, N = 16", "value": 0.00, "unit": "Gy/GBq"}, {"measurement": "Absorbed Dose in Cycle 3, Mean", "setting": "Prostate, N = 16", "value": 0.01, "unit": "Gy/GBq"}, {"measurement": "Absorbed Dose in Cycle 3, max", "setting": "Prostate, N = 16", "value": 0.02, "unit": "Gy/GBq"}, {"measurement": "Absorbed Dose in Cycle 3, min", "setting": "Prostate, N = 16", "value": 0.01, "unit": "Gy/GBq"}, {"measurement": "Absorbed Dose in Cycle 3, Mean", "setting": "Rectum, N = 16", "value": 0.39, "unit": "Gy/GBq"}, {"measurement": "Absorbed Dose in Cycle 3, max", "setting": "Rectum, N = 16", "value": 0.90, "unit": "Gy/GBq"}, {"measurement": "Absorbed Dose in Cycle 3, min", "setting": "Rectum, N = 16", "value": 0.06, "unit": "Gy/GBq"}, {"measurement": "Absorbed Dose in Cycle 3, Mean", "setting": "Red Marrow, N = 16", "value": 0.03, "unit": "Gy/GBq"}, {"measurement": "Absorbed Dose in Cycle 3, max", "setting": "Red Marrow, N = 16", "value": 0.17, "unit": "Gy/GBq"}, {"measurement": "Absorbed Dose in Cycle 3, min", "setting": "Red Marrow, N = 16", "value": 0.00, "unit": "Gy/GBq"}, {"measurement": "Absorbed Dose in Cycle 3, Mean", "setting": "Right Colon, N = 16", "value": 0.22, "unit": "Gy/GBq"}, {"measurement": "Absorbed Dose in Cycle 3, max", "setting": "Right Colon, N = 16", "value": 0.51, "unit": "Gy/GBq"}, {"measurement": "Absorbed Dose in Cycle 3, min", "setting": "Right Colon, N = 16", "value": 0.04, "unit": "Gy/GBq"}, {"measurement": "Absorbed Dose in Cycle 3, Mean", "setting": "Salivary Glands, N = 16", "value": 0.20, "unit": "Gy/GBq"}, {"measurement": "Absorbed Dose in Cycle 3, max", "setting": "Salivary Glands, N = 16", "value": 0.69, "unit": "Gy/GBq"}, {"measurement": "Absorbed Dose in Cycle 3, min", "setting": "Salivary Glands, N = 16", "value": 0.04, "unit": "Gy/GBq"}, {"measurement": "Absorbed Dose in Cycle 3, Mean", "setting": "Small intestine, N = 16", "value": 0.04, "unit": "Gy/GBq"}, {"measurement": "Absorbed Dose in Cycle 3, max", "setting": "Small intestine, N = 16", "value": 0.10, "unit": "Gy/GBq"}, {"measurement": "Absorbed Dose in Cycle 3, min", "setting": "Small intestine, N = 16", "value": 0.01, "unit": "Gy/GBq"}, {"measurement": "Absorbed Dose in Cycle 3, Mean", "setting": "Spleen, N = 16", "value": 0.03, "unit": "Gy/GBq"}, {"measurement": "Absorbed Dose in Cycle 3, max", "setting": "Spleen, N = 16", "value": 0.12, "unit": "Gy/GBq"}, {"measurement": "Absorbed Dose in Cycle 3, min", "setting": "Spleen, N = 16", "value": 0.01, "unit": "Gy/GBq"}, {"measurement": "Absorbed Dose in Cycle 3, Mean", "setting": "Stomach Wall, N = 16", "value": 0.01, "unit": "Gy/GBq"}, {"measurement": "Absorbed Dose in Cycle 3, max", "setting": "Stomach Wall, N = 16", "value": 0.02, "unit": "Gy/GBq"}, {"measurement": "Absorbed Dose in Cycle 3, min", "setting": "Stomach Wall, N = 16", "value": 0.00, "unit": "Gy/GBq"}, {"measurement": "Absorbed Dose in Cycle 3, Mean", "setting": "Testes, N = 16", "value": 0.01, "unit": "Gy/GBq"}, {"measurement": "Absorbed Dose in Cycle 3, max", "setting": "Testes, N = 16", "value": 0.02, "unit": "Gy/GBq"}, {"measurement": "Absorbed Dose in Cycle 3, min", "setting": "Testes, N = 16", "value": 0.00, "unit": "Gy/GBq"}, {"measurement": "Absorbed Dose in Cycle 3, Mean", "setting": "Thymus, N = 16", "value": 0.01, "unit": "Gy/GBq"}, {"measurement": "Absorbed Dose in Cycle 3, max", "setting": "Thymus, N = 16", "value": 0.02, "unit": "Gy/GBq"}, {"measurement": "Absorbed Dose in Cycle 3, min", "setting": "Thymus, N = 16", "value": 0.00, "unit": "Gy/GBq"}, {"measurement": "Absorbed Dose in Cycle 3, Mean", "setting": "Thyroid, N = 16", "value": 0.01, "unit": "Gy/GBq"}, {"measurement": "Absorbed Dose in Cycle 3, max", "setting": "Thyroid, N = 16", "value": 0.02, "unit": "Gy/GBq"}, {"measurement": "Absorbed Dose in Cycle 3, min", "setting": "Thyroid, N = 16", "value": 0.00, "unit": "Gy/GBq"}, {"measurement": "Absorbed Dose in Cycle 3, Mean", "setting": "Total Body, N = 16", "value": 0.02, "unit": "Gy/GBq"}, {"measurement": "Absorbed Dose in Cycle 3, max", "setting": "Total Body, N = 16", "value": 0.03, "unit": "Gy/GBq"}, {"measurement": "Absorbed Dose in Cycle 3, min", "setting": "Total Body, N = 16", "value": 0.01, "unit": "Gy/GBq"}, {"measurement": "Absorbed Dose in Cycle 3, Mean", "setting": "Urinary Bladder wall, N = 16", "value": 0.45, "unit": "Gy/GBq"}, {"measurement": "Absorbed Dose in Cycle 3, max", "setting": "Urinary Bladder wall, N = 16", "value": 0.70, "unit": "Gy/GBq"}, {"measurement": "Absorbed Dose in Cycle 3, min", "setting": "Urinary Bladder wall, N = 16", "value": 0.36, "unit": "Gy/GBq"}, {"measurement": "organ absorbed radiation dose, kidneys", "setting": "cycle 3, 16 patients imaged at cycle 1 and 3", "value": "0.49±0.19", "unit": "Gy/GBq"}, {"measurement": "Absorbed Dose in Cycle 3, Mean", "setting": "in vivo", "value": 0.29, "unit": "Gy/GBq"}, {"measurement": "Absorbed Dose in Cycle 3, max", "setting": "in vivo", "value": 0.73, "unit": "Gy/GBq"}, {"measurement": "Absorbed Dose in Cycle 3, min", "setting": "in vivo", "value": 0.10, "unit": "Gy/GBq"}]}]}
